Key:
[1] = tested on: ABCA1-mediated cholesterol efflux; assay: 3H-cholesterol efflux to apoA-I from free cholesterol-loaded macrophages; format: cell-based, mouse; settings: 70 nM; macrophages incubated for a prolonged period with acetyl-LDL without ACAT inhibitor (FIG. 12C)
[2] = tested on: cholesterol trafficking to the plasma membrane; assay: Cholesterol oxidase assay (plasma membrane cholesterol); format: cell-based, mouse
Method: Shown is the mass (in μg/mg cell protein) of cholesterol (Chol, open bars), which is the cholesterol oxidase-inaccessible pool of intracellular cholesterol, and of cholestenone (CN, striped bars), which is the cholesterol oxidase-accessible pool of plasma membrane cholesterol.
Macrophages were fixed with 1% glutaraldehyde for 10 min and then incubated for 30 min at 37° C. with 2 U/ml Streptomyces cholesterol oxidase. Cellular lipids were extracted twice with 0.5 ml of hexane:isopropanol (3:2).
Cholesterol and.cholestenone mass in these extracts were determined by gas-liquid chromatography using β-sitosterol as an internal standard. The lipid-extracted cell monolayer was dissolved in 1 ml 1N NaOH and assayed for protein content using the method of Lowry et al. (50).

[3] = tested on: cholesterol trafficking to the endoplasmic reticulum; assay: Whole-cell cholesterol esterification assay (cholesterol trafficking to ER membranes); format: cell-based, mouse
Method: Shown is the mean±S.E.M (n=3) of [^3H]cholesteryl ester formed (in cpm/mg cell protein).
Macrophages were incubated for 5 h with DMEM, 0.2% BSA containing 50 μg/ml [^3H]cholesterol-labeled acetyl-LDL alone or containing the indicated compounds. Cellular lipids were extracted twice with 0.5 ml of hexane:isopropanol (3:2, v/v), and the cellular content of [^3H]cholesteryl ester was determined using thin-layer chromatography (49). The lipid-extracted cell monolayer was dissolved in 1 ml 1N NaOH and assayed for protein content using the method of Lowry et al. (50).

[4] = tested on: ABCA1-mediated cholesterol efflux; assay: 3H-cholesterol efflux to apoA-I from free cholesterol-loaded macrophages; format: cell-based, mouse
Method: Peritoneal macrophages from C57 mice were incubated for 5 h with 100 μg/ml ^3H-cholesterol-labeled acetyl-LDL in DMEM, 0.2% BSA, in the presence of 10 μg/ml 58035.
Acetyl-LDL (800 μg) was incubated with 10 μCi ^3H-cholesterol for 30 min at 37° C., followed by addition of 8 ml of DMEM, 0.2% BSA. The macrophages were incubated with this medium for 5 h, washed 3 times with PBS, and then incubated with DMEM, 0.2% BSA for 15 min at 37° C. After washing with PBS, the macrophages were incubated with DMEM, 0.2% BSA, containing either 15 μg/ml apoAI or 20 μg/ml HDL2. At the indicated time points, 100 μl of media was removed and centrifuged for 5 min at 14,000 rpm to pellet cellular debris. The radioactivity in this fraction of media was quantitated by liquid scintillation counting. After the last time point, the remainder of the media was removed, and the cells were dissolved in 0.5 ml of 0.1 N NaOH containing 0.5% sodium dodecylsulfate (5 h at room temperature). A 100 μl-aliquot of the cell lysate was counted, and the percent efflux was calculated as (media cpm)[…](cell +media cpm)×100. Total protein in the cell lysate was determined using the Bio-Rad DC protein assay kit. Note that there was no statistical difference in cellular cpm or protein between cholesteryl ester- and free cholesterol-loaded macrophages.

ABCA1 protein = assay: ABCA1 immunoblot of total and cell-surface protein in cholesterol-loaded macrophages; format: cell-based, mouse
Method: Macrophages were pre-incubated for 14 h with 50 μg/ml acetyl-LDL in DMEM, 0.2% BSA, in the absence (CE) or presence (FC) of 58035. The cells were then incubated for 5 h with 100 μg/ml acetyl-LDL in DMEM, 0.2% BSA, in the absence or presence of 58035, respectively, with no further additions (Control) or in the presence of 10 μg/ml cycloheximide, 50 μM ALLN, or 50 μM lactacystin as indicated. Aliquots of cell lysates were then assayed for ABCA1 and β-actin protein by immunoblot analysis.
Macrophages were pre-incubated for 14 h with 50 μg/ml acetyl-LDL in DMEM, 0.2% BSA, in the absence (CE) or presence (FC) of 58035. […] Aliquots of total cell protein (top panel) or cell-surface protein (bottom panel) were then subjected to immunoblot analysis for ABCA1 and the standards β-actin or β1-integrin.
Macrophage monolayers in 35-mm dishes were washed with ice-cold PBS 3 times and then incubated with ice-cold PBS containing 0.5 mg/ml NHS—SS-biotin (Pierce) for 30 minutes at 4° C. After washing 5 times with ice-cold PBS containing 20 mM Tris-HCl, pH 8.0, the cells were scraped into PBS and pelleted by centrifugation. The pelleted macrophages were lysed in 50 μl RIPA buffer (0.5% sodium deoxycholate, 0.1% SDS, 1% Triton X-100, 20 mM Tris, 150 mM NaCl, and 5 mM EDTA, pH 8) containing 1 mM PMSF. […] of the lysate were subjected directly to 4-20% gradient SDS-polyacrylamide gel electrophoresis (SDS-PAGE) for determination of total ABCA1. The rest of the cell lysate was affinity-purified to isolate biotinylated proteins. Briefly, the cell lysates were diluted to 150 μl in RIPA buffer and incubated with 50 μl immobilized streptavidin agarose (Pierce), which was pre-washed three times with RIPA buffer at 0° C. for 2 h with gentle shaking. The agarose was pelleted by centrifugation using a microcentrifuge at 5,000 rpm for 2 min; the pellet was resuspended in 1 ml RIPA buffer, and the process was repeated 5 times. The agarose was resuspended 30 μl SDS-PAGE loading buffer containing 330 mM β-mercaptoethanol at 37^6C for 15 min and subjected to SDS-PAGE as above. ABCA1 and β-integrin were detected by Western blot using anti-ABCA1 and anti-β-integrin anti-sera. The blots were reprobed with anti-β-actin antibody, which detected no actin signal, thus verifying that no cytosolic protein was biotinylated by the procedure.
Peritoneal macrophages were lysed in RIPA buffer containing 1 mM PMSF. Nuclei were removed by centrifugation at 3000×g for 10 min at 4° C. […] For Western blot detection of ABCA1, anti-ABCA1 antiserum was used. Signals were detected using HRP-conjugated secondary anti-bodies (Bio-Rad) and ECL (Amersham Pharmacia Biotech). The membranes were reprobed with anti-β actin monoclonal antibody or anti-β1-integrin anti-serum for the proper internal controls. The relative intensities of the bands were determined by densitometry.

[5] = tested on: LDL receptor knockout mice; assay: In vivo efficacy in LDL receptor knockout mouse model of atherosclerosis; settings: 0.75 mg/kg/d
Method: Plasma was assayed for total cholesterol.
Asteriks denote statistically significant differences between drug and control groups (p<0.05 by the Student's t test).

Question: With `CCN(CC)CCO[C@H]1CC[C@@]2(C)C(=CC[C@@H]3[C@@H]2CC[C@]2(C)C(=O)CC[C@@H]32)C1` [U18666A, 3-β-[2-(diethylamino)ethoxy]androst-5-en-17-one] as the compound, how does the “increase of cholesterol efflux to apoA-I” value [1] read?
Answer: about 30%

Question: What about the “reduction of cholesterol trafficking to the plasma membrane” value ([2]; 70 nM (data not shown)) of the same compound?
Answer: about 10%

Question: And the “accrual of cholesterol in the plasma membrane” value ([2]; low dose (70 nM), cholesterol oxidase accessibility and cyclodextrin extractability (FIG. 15B))?
Answer: no effect

Question: What about the “decrease of cholesterol trafficking to the endoplasmic reticulum” value ([3]; 70 nM (data not shown)) of the same compound?
Answer: about 90%

Question: What about the “reduction of re-esterification of ingested cholesterol” value ([3]; low dose (70 nM), 5 h, acetyl-LDL (FIG. 15A)) of the same compound?
Answer: 90%

Question: And the “concentrations at which efflux was gradually inhibited” value ([4]; FC-loaded macrophages)?
Answer: greater than 100 nM

Question: What about the “induction of cholesterol efflux to ApoA-1” value ([4]; FC-loaded macrophages (FIGS. 11A, 11B)) of the same compound?
Answer: marked ability to induce cholesterol efflux to ApoA-1

Question: What about the “concentration of peak cholesterol efflux to ApoA-1” value ([4]; FC-loaded macrophages, 6 h apoA-I (FIG. 11A)) of the same compound?
Answer: 70 nM

Question: What about the “restoration of ABCA1-dependent efflux” value ([4]; optimal low doses, FC-loaded macrophages (FIG. 12A)) of the same compound?
Answer: restored ABCA1-dependent efflux

Question: And the “ABCA1 protein loss in free cholesterol-loaded cells (total protein)” value (ABCA1 protein; 70 nM (FIG. 13, top panel))?
Answer: protected from the ABCA1 protein loss

Question: And the “decrease of cell-surface ABCA1 protein” value (ABCA1 protein; 70 nM, FC-loaded cells (FIG. 13, bottom panel), 60% in untreated cells)?
Answer: about 15%

Question: And the “ABCA1 protein expression in free cholesterol-loaded cells” value (ABCA1 protein; low concentrations)?
Answer: markedly enhance

Question: And the “plasma HDL cholesterol versus vehicle” value ([5]; 12 weeks (FIG. 14B))?
Answer: similar

Question: And the “atherosclerotic lesion area, proximal aorta” value ([5]; 12 weeks (FIG. 14C), p<0.05)?
Answer: marked reduction

Question: And the “acellular area, proximal aorta” value ([5]; 12 weeks (FIG. 14D), p<0.05)?
Answer: marked reduction

Question: And the “lipid core area, proximal aorta” value ([5]; 12 weeks (FIG. 14E), p<0.05)?
Answer: marked reduction

Question: And the “plasma total cholesterol versus vehicle” value ([5]; 12 weeks, cholesterol and saturated fat diet (FIG. 14A))?
Answer: similar
